Experimental data: US10745408B2, “Biologically active taxane analogs and methods of treatment by oral administration” (Tapestry Pharmaceuticals, Inc., priority 2007, dated 2020)
Entries after “also recorded” stand apart in the source; their conditions may differ.

Columns and labels:
FADU = assay: MTS proliferation assay, head/neck FADU; assay type: cell-based; conditions: Homo sapiens
Experimental: (§1) MTS Proliferation Assay (Promega)
(§2) Day 1: Cells were plated in appropriate growth medium at 5×10^3 per well in 100 ul in 96 well tissue culture plates, Falcon, one for each drug to be tested. Col 1 was blank; it contained no cells, just medium. The plates were incubated overnight at 37° C., 5% CO2 to allow attachment.
(§3) Day 2: Added 120 ul growth medium in wells of 96-well “dilution plates” (one for each drug) and let sit in 37° C. incubator for about 1 hr.
(§4) Thawed DMSO drug stocks (usually at 10 mM). Each drug was diluted 6 ul into a tube with 3 ml growth medium, to 20 μM.
(§5) Aspirated medium from col 12 of a dilution plate; added 200-300 ul of 20 uM drug to wells of col 12. Made serial dilution down this 96-well plate: for a […] dilution pattern, moved 60 ul from col 12 to col 11, mixed 4-5 times (using 8 place multi-pipettor), moved 60 ul to col 10, etc. stopping at col 3.
(§6) Moved 100 ul of medium+drug from dilution plate to a cell plate, i.e. col 1 from drug plate (blank=no cells) to col 1 of cell plate, etc. up to col 12. Col 2 contained cells with no drug. […]
(§7) Day 4 or 5: Terminated the assay 48 to 72 hrs after drug addition. […] When the color turned dark in control wells (col 2), and was still light in col 12, the absorbance at 490 nm was read on a plate reader; the results were used to calculate IC50.

DU145 = assay: MTS proliferation assay, prostate DU145; assay type: cell-based; conditions: Homo sapiens, DU-145
Experimental: as §1, §2, §3, §4, §5, §6, §7

MDA435s = assay: MTS proliferation assay, breast MDA435s; assay type: cell-based
Experimental: as §1, §2, §3, §4, §5, §6, §7

KBV (MDR+) = assay: MTS proliferation assay, head/neck KBV (MDR+); assay type: cell-based
Experimental: as §1, §2, §3, §4, §5, §6, §7

MESSA/Dox (MDR+) = assay: MTS proliferation assay, uterine MESSA/Dox (MDR+); assay type: cell-based; conditions: Homo sapiens, MES-SA
Experimental: as §1, §2, §3, §4, §5, §6, §7

PC-3 = assay: MTS proliferation assay, prostate PC-3; assay type: cell-based; conditions: Homo sapiens
Experimental: as §1, §2, §3, §4, §5, §6, §7

[1] = test system: bovine microtubule protein; assay: In vitro ED50 MT polymerization study (DAPI fluorescence tubulin assay); assay type: biochemical; conditions: tubulin polymerization, 37° C. 30 minutes, maximum assembly = 25 μM paclitaxel
Experimental: In Vitro ED50 MT Polymerization Study
In this tubulin binding assay, microtubule protein (MTP) is used as a substrate. The assay contains bovine tubulin plus microtubule associated proteins (MAP). MTP is polymerized into microtubules in the presence of DAPI (4′,6′-diamidino-2-phenylindole), a fluorescent compound. DAPI binds to tubulin; when microtubules are formed and there is an enhancement of fluorescence. The microtubule formation is measured as a function of time, using a fluorescence plate reader. […] The method used is based on the procedure published by Donna M. Barron, et al, “Fluorescence-based high-throughput assay for antimicrotuble drugs” Analytical Biochemistry, 315: 49-56, 2003, which is incorporated by reference in its entirety. The excitation wavelength, in that assay, was set at 370 nm and the emission wavelength was set at 450 nm for the DAPI experiments.
A Bio-Tek FL 600 microplate Fluorescence Reader was used to measure the relative level of fluorescence in the DAPI assay.
Assays were conducted in 96-well plates. Each well contained a total volume of 0.1 mL consisting of PEM buffer (0.1 M Pipes, 1 mM EGTA, 1 mM MgCl2, pH 6.9), 0.2 mg bovine microtubule protein, and 10 μg of DAPI. […] The final DMSO concentration was 4%. The plates were incubated at 37° C. for 30 minutes and read in a fluorescence plate reader using an excitation wavelength of 360 nm and an emission wavelength of 460 nm. Fluorescence values were corrected for the sample without compound.
Experiments were done twice in triplicate. Results were subsequently combined and fit to a non-linear regression program.

[2] = Phase 1 Study S-(1)-01 plasma pharmacokinetics (weekly x3, 28-day cycle); assay type: in vivo, human; conditions: for half-life / AUC(0-t): human, plasma; for AUC(0-t): read-out: AUC0-24
Source text: (§8) Both trials have enrolled patients with advanced solid tumors, non-Hodgkin's lymphoma or Hodgkin's lymphoma that have recurred or progressed following at least standard therapy; patients with malignancies for which there is no standard therapy; patients who are not candidates for standard therapy; or patients who have chosen not to pursue standard therapy. […] Study S-(1)-01 is currently being conducted in the United States. […] Study S-(1)-02 is currently being conducted in the United States and in Israel.
Plasma pharmacokinetics of S-(1) were assessed following the first dose of S-(1) in both studies. Plasma samples were analyzed for S-(1) using a validated LC/MS-MS method.

[3] = test system: patients with advanced neoplasms; assay: Phase 1 Study S-(1)-02 safety, tolerability and anti-neoplastic activity; assay type: in vivo, human
Source text: as §8
Treatment cohorts were expanded to 6 pts in the face of dose-limiting toxicity (DLT); pts could remain on study until the development of progressive disease or an intolerable adverse event. DLT was defined as Gr 4 heme toxicity lasting 7 days; febrile neutropenia, Gr 3 thrombocytopenia with bleeding, Gr 3 elevation of transaminases lasting 7 days or any other Gr 3/4 toxicity other than nausea or vomiting.

[4] = Injection formulation administered IV and orally: mouse PK parameters; assay type: in vivo; conditions: for half-life: read-out: t ½ (converted)
[5] = 14 mg/m^2 i.v., first dose, 50:50 Cremophor EL-P/ethanol formulation
[6] = 28 mg/m^2 i.v., first dose, 50:50 Cremophor EL-P/ethanol formulation
[7] = 56 mg/m^2 i.v., first dose, 50:50 Cremophor EL-P/ethanol formulation
[8] = 85 mg/m^2 i.v., first dose, 50:50 Cremophor EL-P/ethanol formulation
[9] = 127.5 mg/m^2 i.v., first dose, 50:50 Cremophor EL-P/ethanol formulation
[10] = mouse, in vivo, Oral 10 mg/kg, injection formulation

What does the source list for C=C[C@H]1O[C@H]2C[C@H]3OC[C@@]3(OC(C)=O)[C@H]3[C@H](OC(=O)c4ccccc4)[C@]4(C(C)(C)O)CC(OC(=O)[C@H](O)C(CC(C)C)NC(=O)OC(C)(C)C)C(C)=C4[C@H](OC(C)=O)[C@H](O1)[C@]23C (stereo partly drawn) [S-(1)]?
IC50 (FADU): 21 nM; IC50 (DU145): 60 nM; IC50 (MDA435s): 10 nM; IC50 (KBV (MDR+)): 553 nM; IC50 (MESSA/Dox (MDR+)): 44.8 nM; IC50 (PC-3): 0.03 nM; EC50 [1]: 1580 ± 460 nM; Cl [2, 5]: 35.5 ± 29.7 L/hr/m^2; Vss [2, 5]: 23.2 ± 74.5 L/m^2; Cl [2, 6]: 43.5 ± 14.5 L/hr/m^2; Vss [2, 6]: 309 ± 161 L/m^2; Cl [2, 7]: 28.6 ± 13.2 L/hr/m^2; Vss [2, 7]: 216 ± 70 L/m^2; Cl [2, 8]: 16.6 ± 9.26 L/hr/m^2; Vss [2, 8]: 142 ± 75.6 L/m^2; Cl [2, 9]: 30.2±11.9 L/hr/m^2; Vss [2, 9]: 239 ± 116 L/m^2; t1/2 [2, 9]: 6.59 ± 2.60 h; half-life ([2]; intravenous, S-(1)-01 study, all dose groups, read-out: Plasma t1/2 values, range over dose groups): 3.45 to 8.4 h; AUC(0-t) ([2]; iv, 14 mg/m2, 14 mg/m^2 i.v., first dose, 50:50 Cremophor EL-P/ethanol formulation): 457 ± 297 ng·h/mL; half-life ([2]; iv, 14 mg/m2, 14 mg/m^2 i.v., first dose, 50:50 Cremophor EL-P/ethanol formulation, read-out: t1/2 (converted)): 8.4 ± 11.5 h; AUC(0-t) ([2]; iv, 28 mg/m2, 28 mg/m^2 i.v., first dose, 50:50 Cremophor EL-P/ethanol formulation): 682 ± 322 ng·h/mL; half-life ([2]; iv, 28 mg/m2, 28 mg/m^2 i.v., first dose, 50:50 Cremophor EL-P/ethanol formulation, read-out: t1/2 (converted)): 3.45 ± 1.09 h; AUC(0-t) ([2]; iv, 56 mg/m2, 56 mg/m^2 i.v., first dose, 50:50 Cremophor EL-P/ethanol formulation): 2070 ± 888 ng·h/mL; half-life ([2]; iv, 56 mg/m2, 56 mg/m^2 i.v., first dose, 50:50 Cremophor EL-P/ethanol formulation, read-out: t1/2 (converted)): 5.66 ± 3.63 h; AUC(0-t) ([2]; iv, 85 mg/m2, 85 mg/m^2 i.v., first dose, 50:50 Cremophor EL-P/ethanol formulation): 5970 ± 3900 ng·h/mL; half-life ([2]; iv, 85 mg/m2, 85 mg/m^2 i.v., first dose, 50:50 Cremophor EL-P/ethanol formulation, read-out: t1/2 (converted)): 5.52 ± 5.26 h; AUC(0-t) ([2]; iv, 127.5 mg/m2, 127.5 mg/m^2 i.v., first dose, 50:50 Cremophor EL-P/ethanol formulation): 4460 ± 2140 ng·h/mL; half-life ([2]; iv, 127.5 mg/m2, 127.5 mg/m^2 i.v., first dose, 50:50 Cremophor EL-P/ethanol formulation, read-out: t1/2 (converted)): 8.6 ± 1.3 h; Dose limiting toxicity ([3]; 160 mg/m^2 every 21 days): no DLT was observed; Dose limiting toxicity ([3]; 185 mg/m^2 every 21 days): Grade 3 sensory neuropathy; also recorded: Gr 3 peripheral sensory neuropathy; anti-neoplastic activity ([3]; 1 pt with pancreatic cancer): confirmed response; Drug related adverse events ([3]; 56-185 mg/m^2 every 21 days): mucositis, vomiting, diarrhea, neutropenia, thrombocytopenia, myalgias and peripheral neuropathy; dose that can be safely administered ([3]; every 21 days, heavily pre-treated patients): 160 mg/m^2; F ([4]; Oral 10 mg/kg vs IV 10 mg/kg): 47%; AUC(0-inf) ([4]; mouse, in vivo, IV 10 mg/kg): 7.74 µM·h; AUC(0-t) ([4]; mouse, in vivo, IV 10 mg/kg): 6.3 µM·h; clearance ([4]; mouse, in vivo, IV 10 mg/kg): 24.8 mL/min/kg; Vd ([4]; mouse, in vivo, IV 10 mg/kg, read-out: Vdss): 13.3 L/kg; half-life ([4]; mouse, in vivo, IV 10 mg/kg): 6.1 h; AUC(0-inf) [4, 10]: 3.61 µM·h; AUC(0-t) [4, 10]: 3.43 µM·h; Cmax [4, 10]: 460 nM; Tmax [4, 10]: 6 h; half-life [4, 10]: 5.1 h
